Series [1] can be described thus: excess molar enthalpy (molar enthalpy of mixing); xn = mol fraction of the nth substance listed. To be noted: 363.15 K, Liquid, Flow calorimetry.
The nature of series [2]: activity coefficient (dimensionless); of the first substance listed, at infinite dilution; xn = mol fraction of the nth substance listed. To be noted: Liquid, Chromatography, x1 = 0.

Data on 20 compounds can be found in the NIST ThermoML archive (doi:10.1016/j.fluid.2008.11.013).

Numbers after ± are expanded uncertainties.

Take `CCCC[N+]1(C)CCCC1.O=S(=O)([N-]S(=O)(=O)C(F)(F)F)C(F)(F)F` + C=CCCCC: the excess molar enthalpy in series [1] (2239 kPa, x2 = 0.0587) was determined as 0.0332 ± 0.000789 kcal/mol; in series [1] (2239 kPa, x2 = 0.1135) it was 0.064 ± 0.00143 kcal/mol; in series [1] (2239 kPa, x2 = 0.1647) it was 0.0835 ± 0.00184 kcal/mol; in series [1] (2239 kPa, x2 = 0.2579) it was 0.104 ± 0.00227 kcal/mol; in series [1] (2239 kPa, x2 = 0.3781), 0.11 ± 0.00239 kcal/mol; in series [1] (2239 kPa, x2 = 0.4477), 0.0987 ± 0.00215 kcal/mol. Also, the excess molar enthalpy in series [1] (2239 kPa, x2 = 0.5104) stood at 0.0864 ± 0.00189 kcal/mol; in series [1] (2239 kPa, x2 = 0.6185), 0.0666 ± 0.00148 kcal/mol; in series [1] (2239 kPa, x2 = 0.7086), 0.0533 ± 0.0012 kcal/mol; in series [1] (2239 kPa, x2 = 0.7849) it was 0.0399 ± 0.000908 kcal/mol; in series [1] (2239 kPa, x2 = 0.8795), 0.0203 ± 0.000502 kcal/mol.

In the case of `CCCCCC[N+]1(C)CCCC1.O=S(=O)([N-]S(=O)(=O)C(F)(F)F)C(F)(F)F` + CCCCC, the excess molar enthalpy in series [1] (2135 kPa, x2 = 0.0699) was 0.265 ± 0.00574 kcal/mol; in series [1] (2135 kPa, x2 = 0.1337), 0.052 ± 0.00117 kcal/mol; in series [1] (2135 kPa, x2 = 0.1921), 0.0702 ± 0.00155 kcal/mol; in series [1] (2135 kPa, x2 = 0.2952) it was 0.096 ± 0.0021 kcal/mol; in series [1] (2135 kPa, x2 = 0.341), 0.105 ± 0.00229 kcal/mol; in series [1] (2135 kPa, x2 = 0.4229), 0.0964 ± 0.0021 kcal/mol. Moreover, the excess molar enthalpy in series [1] (2135 kPa, x2 = 0.4942) was found to be 0.0849 ± 0.00186 kcal/mol; in series [1] (2135 kPa, x2 = 0.5568), 0.0741 ± 0.00165 kcal/mol; in series [1] (2135 kPa, x2 = 0.6615) it was 0.056 ± 0.00124 kcal/mol; in series [1] (2135 kPa, x2 = 0.7457), 0.0418 ± 0.000956 kcal/mol; in series [1] (2135 kPa, x2 = 0.8147) it was 0.031 ± 0.000741 kcal/mol; in series [1] (2135 kPa, x2 = 0.8979), 0.0187 ± 0.000478 kcal/mol. Further, the excess molar enthalpy in series [1] (2135 kPa, x2 = 0.9635) turned out to be 0.00796 ± 0.000287 kcal/mol.

Turning to `C=CCCCCCCCC` [1-decene] + CCCCCC[N+]1(C)CCCC1.O=S(=O)([N-]S(=O)(=O)C(F)(F)F)C(F)(F)F, the activity coefficient was 18.8 ± 0.87 in series [2] (303.16 K), 18 ± 0.83 in series [2] (313.15 K), 17.3 ± 0.8 in series [2] (323.15 K) and 16.9 ± 0.78 in series [2] (333.16 K).

On to `C=CCCCCC` [1-heptene] + CCCCCCCC[N+]1(C)CCCC1.O=S(=O)([N-]S(=O)(=O)C(F)(F)F)C(F)(F)F, for which the activity coefficient in series [2] (313.11 K) was 4.37 ± 0.2; in series [2] (323.14 K), 4.22 ± 0.19; in series [2] (333.17 K), 4.1 ± 0.19; in series [2] (343.21 K) it was 4.02 ± 0.18.

As to `C=CCCCCC` [1-heptene] + CCCCCC[N+]1(C)CCCC1.O=S(=O)([N-]S(=O)(=O)C(F)(F)F)C(F)(F)F, the activity coefficient in series [2] (303.14 K) came out at 6.5 ± 0.3; in series [2] (313.16 K) it was 6.31 ± 0.29; in series [2] (323.37 K) it was 6.11 ± 0.28; in series [2] (333.16 K) it was 6 ± 0.27.

For `C=CCCC` [1-pentene] + CCCCCCCC[N+]1(C)CCCC1.O=S(=O)([N-]S(=O)(=O)C(F)(F)F)C(F)(F)F, the activity coefficient in series [2] (303.14 K) amounted to 2.5 ± 0.11; in series [2] (313.13 K), 2.43 ± 0.11; in series [2] (323.11 K), 2.33 ± 0.11; in series [2] (343.11 K), 2.25 ± 0.1.

Take `C=CCCC` [1-pentene] + CCCCCC[N+]1(C)CCCC1.O=S(=O)([N-]S(=O)(=O)C(F)(F)F)C(F)(F)F: the activity coefficient is 3.4 ± 0.15 in series [2] (303.16 K), 3.37 ± 0.15 in series [2] (313.17 K), 3.33 ± 0.15 in series [2] (323.15 K) and 3.31 ± 0.15 in series [2] (333.15 K).

`CCCCCCCCCC` [decane] + CCCCCC[N+]1(C)CCCC1.O=S(=O)([N-]S(=O)(=O)C(F)(F)F)C(F)(F)F: the activity coefficient was found to be 28.1 ± 1.3 in series [2] (303.13 K); 27 ± 1.2 in series [2] (313.17 K); 25.1 ± 1.2 in series [2] (323.16 K); 24.3 ± 1.1 in series [2] (333.16 K); 23 ± 1.1 in series [2] (343.13 K).

Regarding `CCCCCCC` [heptane] + CCCCCCCC[N+]1(C)CCCC1.O=S(=O)([N-]S(=O)(=O)C(F)(F)F)C(F)(F)F, the activity coefficient in series [2] (303.1 K) was determined as 6.9 ± 0.32; in series [2] (313.15 K) it was 6.73 ± 0.31; in series [2] (323.09 K) it was 6.54 ± 0.3; in series [2] (333.13 K), 6.36 ± 0.29.

For the compound `CCCCCCC` [heptane] + CCCCCC[N+]1(C)CCCC1.O=S(=O)([N-]S(=O)(=O)C(F)(F)F)C(F)(F)F, the activity coefficient stood at 11.4 ± 0.52 in series [2] (303.16 K), 10.8 ± 0.49 in series [2] (313.16 K), 10.3 ± 0.47 in series [2] (323.15 K) and 9.89 ± 0.45 in series [2] (333.12 K).

Turning to `C=CCCCC` [hex-1-ene] + CCCCCCCC[N+]1(C)CCCC1.O=S(=O)([N-]S(=O)(=O)C(F)(F)F)C(F)(F)F, the activity coefficient in series [2] (303.14 K) was 3.11 ± 0.14; in series [2] (313.13 K) it was 3.29 ± 0.15; in series [2] (323.11 K), 3.22 ± 0.15; in series [2] (343.11 K), 3.15 ± 0.14.

With `C=CCCCC` [hex-1-ene] + CCCCCC[N+]1(C)CCCC1.O=S(=O)([N-]S(=O)(=O)C(F)(F)F)C(F)(F)F, the activity coefficient was 4.77 ± 0.22 in series [2] (303.16 K), 4.63 ± 0.21 in series [2] (313.17 K), 4.55 ± 0.21 in series [2] (323.15 K) and 4.45 ± 0.2 in series [2] (333.15 K).

Consider `CCCCCC` [hexane] + CCCCCCCC[N+]1(C)CCCC1.O=S(=O)([N-]S(=O)(=O)C(F)(F)F)C(F)(F)F, for which the activity coefficient came out at 5.24 ± 0.24 in series [2] (303.16 K), 5.05 ± 0.23 in series [2] (313.13 K), 4.9 ± 0.22 in series [2] (323.17 K) and 4.8 ± 0.22 in series [2] (333.19 K).

For `CCCCCC` [hexane] + CCCCCC[N+]1(C)CCCC1.O=S(=O)([N-]S(=O)(=O)C(F)(F)F)C(F)(F)F, the activity coefficient stood at 8.4 ± 0.39 in series [2] (303.15 K), 7.85 ± 0.36 in series [2] (313.19 K), 7.21 ± 0.33 in series [2] (323.16 K) and 6.57 ± 0.3 in series [2] (333.14 K).

As to `CCCCCCCCC` [nonane] + CCCCCC[N+]1(C)CCCC1.O=S(=O)([N-]S(=O)(=O)C(F)(F)F)C(F)(F)F, the activity coefficient in series [2] (303.13 K) was 21.4 ± 0.99; in series [2] (313.17 K), 19.9 ± 0.92; in series [2] (323.16 K), 18.8 ± 0.87; in series [2] (333.16 K), 18.1 ± 0.84; in series [2] (343.13 K), 17.1 ± 0.79.

On to `C=CCCCCCC` [oct-1-ene] + CCCCCCCC[N+]1(C)CCCC1.O=S(=O)([N-]S(=O)(=O)C(F)(F)F)C(F)(F)F, for which the activity coefficient came to 5.53 ± 0.25 in series [2] (313.11 K), 5.4 ± 0.25 in series [2] (323.14 K), 5.27 ± 0.24 in series [2] (333.17 K) and 5.21 ± 0.24 in series [2] (343.21 K).

Consider `C=CCCCCCC` [oct-1-ene] + CCCCCC[N+]1(C)CCCC1.O=S(=O)([N-]S(=O)(=O)C(F)(F)F)C(F)(F)F, for which the activity coefficient in series [2] (303.14 K) is 8.93 ± 0.41; in series [2] (313.16 K), 8.61 ± 0.4; in series [2] (323.37 K), 8.39 ± 0.38; in series [2] (333.16 K), 8.2 ± 0.38.

Turning to `CCCCCCCC` [octane] + CCCCCCCC[N+]1(C)CCCC1.O=S(=O)([N-]S(=O)(=O)C(F)(F)F)C(F)(F)F, the activity coefficient in series [2] (303.1 K) turned out to be 8.78 ± 0.4; in series [2] (313.15 K), 8.55 ± 0.39; in series [2] (323.09 K) it was 8.39 ± 0.38; in series [2] (333.13 K) it was 8.22 ± 0.38.

Consider `CCCCCCCC` [octane] + CCCCCC[N+]1(C)CCCC1.O=S(=O)([N-]S(=O)(=O)C(F)(F)F)C(F)(F)F, for which the activity coefficient worked out at 15.8 ± 0.73 in series [2] (303.16 K), 14.7 ± 0.68 in series [2] (313.16 K), 13.9 ± 0.64 in series [2] (323.15 K) and 13.3 ± 0.61 in series [2] (333.12 K).

As for `CCCCC` [pentane] + CCCCCC[N+]1(C)CCCC1.O=S(=O)([N-]S(=O)(=O)C(F)(F)F)C(F)(F)F, the activity coefficient in series [2] (303.15 K) amounted to 5.66 ± 0.26; in series [2] (313.19 K), 5.31 ± 0.24; in series [2] (323.16 K), 4.8 ± 0.22; in series [2] (333.14 K), 4.51 ± 0.21.
